Assay results published in ChEMBL document CHEMBL3885881, “DrugMatrix”.

Organism: Rattus norvegicus
Assay: DrugMatrix - Regimen: Daily Repeat
Assay type: toxicity, organism-based, Sprague-Dawley
Design: regimen Daily Repeat, gender Male, age 6-8 weeks
Settings: in vivo, po, route oral GAVAGE, vehicle .5 % CMC; for ABSOLUTE BASOPHIL / ABSOLUTE EOSINOPHIL / ABSOLUTE LYMPHOCYTE / ABSOLUTE MONOCYTE / ABSOLUTE SEGMENTED NEUTROPHIL / BASOPHIL / EOSINOPHIL / ERYTHROCYTE COUNT / HEMATOCRIT / HEMOGLOBIN / LEUKOCYTE COUNT / LYMPHOCYTE / MEAN CORPUSCULAR HEMOGLOBIN / MEAN CORPUSCULAR HEMOGLOBIN CONCENTRATION / MEAN CORPUSCULAR VOLUME / MONOCYTE / NEUTROPHIL / NUCLEATED RED BLOOD CELLS / PLATELET COUNT: tissue Blood; for ALANINE AMINOTRANSFERASE / ALBUMIN / ALKALINE PHOSPHATASE / ASPARTATE AMINOTRANSFERASE / BLOOD UREA NITROGEN / CARBON DIOXIDE / CHLORIDE / CHOLESTEROL / CREATINE PHOSPHOKINASE / CREATININE / GLUCOSE / LACTATE DEHYDROGENASE / LIPASE / PHOSPHORUS / POTASSIUM / SODIUM / TOTAL BILIRUBIN / TOTAL PROTEIN / URIC ACID: tissue Plasma
[1] = 10 mg/kg, 120 h, dose level Low, time 5 day
[2] = 63 mg/kg, 72 h, dose level High, time 3 day
[3] = 63 mg/kg, 120 h, dose level High, time 5 day

`COc1c(C)c2c(c(O)c1C/C=C(\C)CCC(=O)OCCN1CCOCC1)C(=O)OC2` [MYCOPHENOLATE MOFETIL] was tested, and the “ABSOLUTE BASOPHIL” value [1] was 0 CELLS/uL, the “ABSOLUTE EOSINOPHIL” value [1] was 90 CELLS/uL and the “ABSOLUTE LYMPHOCYTE” value [1] was 13218.67 CELLS/uL. The “ABSOLUTE MONOCYTE” value [1] was 116.67 CELLS/uL, the “ABSOLUTE SEGMENTED NEUTROPHIL” value [1] was 1408 CELLS/uL and the BASOPHIL [1] was 0%. The EOSINOPHIL [1] was 0.67%, the “ERYTHROCYTE COUNT” value [1] was 5.48 x10E6/uL and the HEMATOCRIT [1] was 34.27%. The HEMOGLOBIN [1] was 13.7 G/DL, the “LEUKOCYTE COUNT” value [1] was 14.83 x10E3/uL and the LYMPHOCYTE [1] was 89.33%. For the same compound, the “MEAN CORPUSCULAR HEMOGLOBIN” value [1] was 25 pg, the “MEAN CORPUSCULAR HEMOGLOBIN CONCENTRATION” value [1] was 40.03 G/DL and the “MEAN CORPUSCULAR VOLUME” value [1] was 62.53 fL. The MONOCYTE [1] was 0.67%, the NEUTROPHIL [1] was 9.33% and the “NUCLEATED RED BLOOD CELLS” value [1] was 0 /100WBC. For the same compound, the “PLATELET COUNT” value [1] was 1214 x10E3/uL, the “ALANINE AMINOTRANSFERASE” value [1] was 55.67 u/L and the ALBUMIN [1] was 4.17 G/DL. The “ALKALINE PHOSPHATASE” value [1] was 364.33 u/L, the “ASPARTATE AMINOTRANSFERASE” value [1] was 99.67 u/L and the “BLOOD UREA NITROGEN” value [1] was 13.67 mg/dL. For the same compound, the “CARBON DIOXIDE” value [1] was 31.33 mmol/L, the CHLORIDE [1] was 102.67 MEQ/L and the CHOLESTEROL [1] was 61.67 mg/dL. The “CREATINE PHOSPHOKINASE” value [1] was 341.67 u/L, the CREATININE [1] was 0.2 mg/dL and the GLUCOSE [1] was 141 mg/dL. The “LACTATE DEHYDROGENASE” value [1] was 409.33 u/L, the LIPASE [1] was 9.67 u/L and the PHOSPHORUS [1] was 11.87 mg/dL. For the same compound, the POTASSIUM [1] was 6.19 MEQ/L, the SODIUM [1] was 144.83 MEQ/L and the “TOTAL BILIRUBIN” value [1] was 0.1 mg/dL. For the same compound, the “TOTAL PROTEIN” value [1] was 5.8 G/DL, the “URIC ACID” value [1] was 1.37 mg/dL and the “ABSOLUTE BASOPHIL” value [2] was 0 CELLS/uL. The “ABSOLUTE EOSINOPHIL” value [2] was 0 CELLS/uL, the “ABSOLUTE LYMPHOCYTE” value [2] was 8638 CELLS/uL and the “ABSOLUTE MONOCYTE” value [2] was 62 CELLS/uL. For the same compound, the “ABSOLUTE SEGMENTED NEUTROPHIL” value [2] was 300 CELLS/uL, the BASOPHIL [2] was 0% and the EOSINOPHIL [2] was 0%. For the same compound, the “ERYTHROCYTE COUNT” value [2] was 4.81 x10E6/uL, the HEMATOCRIT [2] was 32.3% and the HEMOGLOBIN [2] was 12.6 G/DL. For the same compound, the “LEUKOCYTE COUNT” value [2] was 9 x10E3/uL, the LYMPHOCYTE [2] was 96% and the “MEAN CORPUSCULAR HEMOGLOBIN” value [2] was 26.2 pg. For the same compound, the “MEAN CORPUSCULAR HEMOGLOBIN CONCENTRATION” value [2] was 39 G/DL, the “MEAN CORPUSCULAR VOLUME” value [2] was 67.17 fL and the MONOCYTE [2] was 0.67%. For the same compound, the NEUTROPHIL [2] was 3.33%, the “NUCLEATED RED BLOOD CELLS” value [2] was 0.33 /100WBC and the “PLATELET COUNT” value [2] was 1141.33 x10E3/uL. The “ALANINE AMINOTRANSFERASE” value [2] was 32.67 u/L, the ALBUMIN [2] was 4.13 G/DL and the “ALKALINE PHOSPHATASE” value [2] was 373.33 u/L. The “ASPARTATE AMINOTRANSFERASE” value [2] was 70.33 u/L, the “BLOOD UREA NITROGEN” value [2] was 14.33 mg/dL and the “CARBON DIOXIDE” value [2] was 28.67 mmol/L. For the same compound, the CHLORIDE [2] was 102.33 MEQ/L, the CHOLESTEROL [2] was 78.67 mg/dL and the “CREATINE PHOSPHOKINASE” value [2] was 199.67 u/L. For the same compound, the CREATININE [2] was 0.16 mg/dL, the GLUCOSE [2] was 161.67 mg/dL and the “LACTATE DEHYDROGENASE” value [2] was 310.33 u/L. The LIPASE [2] was 9.67 u/L, the PHOSPHORUS [2] was 11.63 mg/dL and the POTASSIUM [2] was 6.25 MEQ/L. For the same compound, the SODIUM [2] was 143.47 MEQ/L, the “TOTAL BILIRUBIN” value [2] was 0.13 mg/dL and the “TOTAL PROTEIN” value [2] was 5.6 G/DL. For the same compound, the “URIC ACID” value [2] was 1.1 mg/dL, the “ABSOLUTE BASOPHIL” value [3] was 0 CELLS/uL and the “ABSOLUTE EOSINOPHIL” value [3] was 45.67 CELLS/uL. For the same compound, the “ABSOLUTE LYMPHOCYTE” value [3] was 11569 CELLS/uL, the “ABSOLUTE MONOCYTE” value [3] was 81.67 CELLS/uL and the “ABSOLUTE SEGMENTED NEUTROPHIL” value [3] was 1037 CELLS/uL. The BASOPHIL [3] was 0%, the EOSINOPHIL [3] was 0.33% and the “ERYTHROCYTE COUNT” value [3] was 4.9 x10E6/uL. The HEMATOCRIT [3] was 29.73%, the HEMOGLOBIN [3] was 12.17 G/DL and the “LEUKOCYTE COUNT” value [3] was 12.73 x10E3/uL. For the same compound, the LYMPHOCYTE [3] was 91%, the “MEAN CORPUSCULAR HEMOGLOBIN” value [3] was 24.83 pg and the “MEAN CORPUSCULAR HEMOGLOBIN CONCENTRATION” value [3] was 40.93 G/DL. For the same compound, the “MEAN CORPUSCULAR VOLUME” value [3] was 60.7 fL, the MONOCYTE [3] was 0.67% and the NEUTROPHIL [3] was 8%. For the same compound, the “NUCLEATED RED BLOOD CELLS” value [3] was 0 /100WBC, the “PLATELET COUNT” value [3] was 1576 x10E3/uL and the “ALANINE AMINOTRANSFERASE” value [3] was 40.33 u/L. The ALBUMIN [3] was 4.33 G/DL, the “ALKALINE PHOSPHATASE” value [3] was 290 u/L and the “ASPARTATE AMINOTRANSFERASE” value [3] was 92.67 u/L. The “BLOOD UREA NITROGEN” value [3] was 17.33 mg/dL, the “CARBON DIOXIDE” value [3] was 27.33 mmol/L and the CHLORIDE [3] was 101 MEQ/L. The CHOLESTEROL [3] was 76.67 mg/dL, the “CREATINE PHOSPHOKINASE” value [3] was 208.67 u/L and the CREATININE [3] was 0.15 mg/dL. The GLUCOSE [3] was 189.33 mg/dL, the “LACTATE DEHYDROGENASE” value [3] was 215.33 u/L and the LIPASE [3] was 7 u/L. The PHOSPHORUS [3] was 12.23 mg/dL, the POTASSIUM [3] was 5.8 MEQ/L and the SODIUM [3] was 145 MEQ/L. For the same compound, the “TOTAL BILIRUBIN” value [3] was 0.2 mg/dL, the “TOTAL PROTEIN” value [3] was 6.07 G/DL and the “URIC ACID” value [3] was 1.83 mg/dL.
